This passage reports IC50 results from ChEMBL document CHEMBL1201862, “PubChem BioAssay data set” (2004).

The IC50 is the concentration at which inhibition is half-maximal.

The assay concerns the target Envelope glycoprotein gp160 (Human immunodeficiency virus 1, UniProt Q6QLK5). The assay can be described thus: cell-free HIV fusion peptide-binding blockers – biochemical, uHTS, fluorescence dequenching, […] (AID 1986).

Activity calls are given as the source filed them. No stated cut-off is given here; in the data, actives have a measured IC50 and inactives only a lower limit.

Chain of Envelope glycoprotein gp160 (Q6QLK5 whole entry, the tested form may be a part): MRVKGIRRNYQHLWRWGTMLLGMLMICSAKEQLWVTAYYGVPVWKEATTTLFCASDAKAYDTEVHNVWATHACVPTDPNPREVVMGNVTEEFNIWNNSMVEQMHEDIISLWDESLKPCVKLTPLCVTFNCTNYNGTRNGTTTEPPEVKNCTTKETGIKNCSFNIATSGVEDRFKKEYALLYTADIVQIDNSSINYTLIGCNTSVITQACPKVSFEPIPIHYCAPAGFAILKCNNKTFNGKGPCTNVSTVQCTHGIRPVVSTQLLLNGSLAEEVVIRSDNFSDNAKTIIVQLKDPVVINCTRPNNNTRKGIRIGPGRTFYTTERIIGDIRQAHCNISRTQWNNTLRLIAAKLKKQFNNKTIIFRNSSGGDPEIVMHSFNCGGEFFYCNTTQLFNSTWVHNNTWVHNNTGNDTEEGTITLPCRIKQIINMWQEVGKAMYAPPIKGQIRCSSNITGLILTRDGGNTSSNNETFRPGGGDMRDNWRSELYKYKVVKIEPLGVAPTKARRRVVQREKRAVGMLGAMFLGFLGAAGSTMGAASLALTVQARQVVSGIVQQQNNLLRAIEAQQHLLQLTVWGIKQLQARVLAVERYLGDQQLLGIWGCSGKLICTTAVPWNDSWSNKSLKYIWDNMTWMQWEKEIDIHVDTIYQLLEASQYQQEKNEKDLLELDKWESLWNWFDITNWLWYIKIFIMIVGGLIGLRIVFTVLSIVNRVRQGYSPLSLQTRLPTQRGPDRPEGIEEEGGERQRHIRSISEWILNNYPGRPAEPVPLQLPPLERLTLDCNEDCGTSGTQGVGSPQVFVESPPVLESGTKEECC

`O=C(OCC1OC(n2ncc(=O)[nH]c2=O)C(OC(=O)c2ccccc2)C1OC(=O)c1ccccc1)c1ccccc1` (stereo unspecified): the IC50 is 23.8 µM (active).
